PMC9867241, “Antioxidant and Cytotoxic Activity of New Polyphenolic Derivatives of Quinazolin-4(3H)-one: Synthesis and In Vitro Activities Evaluation” (Pharmaceutics, 2022)

Assays:
[1] = DPPH˙ radical scavenging assay
Procedure: The stock solutions (1 mg/mL) of the tested compounds and the controls were obtained, by dissolving the substances in dimethyl sulfoxide (DMSO). Using Jasco V-530, an UV-VIS spectrophotometer (Jasco International Co., Ltd., Tokyo, Japan), we performed the colorimetric determinations in low-volume single-use 10 mm width cuvettes.
The assays were performed in triplicate and the results are presented as averages for each assay.
The DPPH˙ radical scavenging assay is based on the transfer of one hydrogen from the analyzed compound to the violet stable free radical DPPH˙ (2,2-diphenyl-1-picrylhydrazyl), as we convert it into a yellow compound. The absorbance of the reagent mixed with samples presented inversely proportional values to the amount of DPPH˙ neutralized. The absorbance of the reagent was measured at λ = 517 nm, according to our previous reports. The assay was made in the presence of various concentrations of samples. The used protocol is based on the report of Brand-Williams et al..

[2] = NO˙ radical scavenging assay (Griess reaction); details: PBS pH 7.4, sodium nitroprusside
Procedure: The scavenging of the NO˙ radical was performed by applying previously reported protocols. The in vitro protocol describes the decomposition of sodium nitroprusside in phosphate buffered saline (PBS) at pH = 7.4. The NO˙ radicals would be involved in a Griess reaction if they were not captured by the tested compounds. This reaction results from the formation of an azo dye, with maximum absorption at 546 nm. This azo dye is formed from sulfanilic acid and naphthyl ethylenediamine dichloride.

[3] = Ferric reducing antioxidant potential (FRAP) assay; design: concentration or dose not given beside the values; details: for FRAP, % of Activity of Trolox: relative to Trolox; for FRAP, % of Activity of Ascorbic Acid: relative to ascorbic acid
Procedure: In the ferric reducing antioxidant potential (FRAP) assay, in comparison with a blank sample prepared from DMSO mixed with FRAP reagent, the absorbance of the solutions was measured at λ = 593 nm. The compounds were tested according to a modified method proposed initially by Benzie and Strain [31]. Using Equation (4), we calculated the reducing antioxidant potential of 5a–d and 6a–d as a percentage of the activity of the reference compounds:(4) % of control activity=sample absorbance/reference absorbance×100
Ferrous ions resulting from the reduction of ferric ions in the presence of an antioxidant compound form a blue-colored complex (Fe^2+-TPTZ) at pH = 3.6 with tripyridyltriazine (2,4,6-tris(2-pyridyl)-s-triazine). The intensity of the blue complex formed is proportional to the number of ferrous ions. Compounds 5a, 5c and 5d expressed a good electron donation capacity.

[4] = Reducing power (RP) assay; design: concentration or dose not given beside the values; details: for RP, % of Activity of Trolox: relative to Trolox; for RP, % of Activity of Ascorbic Acid: relative to ascorbic acid
Procedure: Herein, the iron (III) is not free in the solution as it was in the FRAP assay and is complexed by cyanide ions. The evaluation of the reducing power (RP) was performed at a pH closer to neutral (pH = 6.6); this is different from the FRAP test, which is performed in an acidic environment. Against a blank sample, the absorbances were measured at λ = 700 nm. The followed protocol was based on the adaptation of previously reported protocols and was previously reported by our group. Using Equation (4), we calculated the reducing power of the 5a–d and 6a–d compounds as a percentage of the reference compounds activity.
The evaluated compounds can reduce ferricyanide to ferrocyanide, in the presence of ferric ions, resulting in the Perl’s Prussian which gives blue. The higher the percentage of reducing power, the higher was the absorbance that was measured due to a higher amount of colored complex resulting from the reaction.

[5] = Cupric reducing antioxidant capacity (CUPRAC) assay; design: concentration or dose not given beside the values; details: for CUPRAC, % of Activity of Trolox: relative to Trolox; for CUPRAC, % of Activity of Ascorbic Acid: relative to ascorbic acid
Procedure: The ability to donate electrons was evaluated for the compounds 5a–d and 6a–d, by the CUPRAC (CUPric reducing antioxidant capacity) method. The absorbance was measured against a blank sample, at λ = 450 nm. The assay was performed based on our group’s previous report by the adaptation of the initial report of Alam et al., Özyürek et al. and Apak et al.. With the use of Equation (4), the cupric ion reduction by compounds 5a–d and 6a–d was expressed as a percentage of the reference compound activity.
The Cu^2+ ions are reduced to Cu^+ ions by the electron-donating compounds. The Cu^+ ions are chelated by neocuproine, giving a colored complex with absorbance proportional to the quantity of Cu^+ ions that resulted.

[6] = Fe^2+ chelation assay (ferrozine competition)
Procedure: In the protocol used for evaluating the Fe^2+ chelating ability of the compounds, the absorbances of the solutions were determined at λ = 562 nm, against a blank sample. The method was adapted from the initial report of Benzie and Strain et al., which was previously reported by our group. Using Equation (5), we calculated the iron chelation capacities of the 5a–d and 6a–d compounds:(5) iron chelation (%)=control absorbance−sample absorbance/control absorbance×100
The chelating capacity of the tested compounds of Fe^2+ was evaluated based on their competition for Fe^2+ with ferrozine.

[7] = Cu^2+ chelation assay (murexide competition)
Source text: With murexide as a chromophoric chelator, we performed the protocol followed for the evaluation of Cu^2+ chelating activities of the compounds using an adaptation of the method presented by Cesari et al. and Wu et al.. Using Equation (6), we calculated the copper chelation capacities of the 5a–d and 6a–d compounds:(6) copper chelation (%)=(A485/A520)control−(A485/A520)sample/(A485/A520)control×100
The evaluation of the Cu^2+ chelation activity of compounds was made based on the competition for Cu^2+ with murexide. The chelating activity of compounds for the cupric ions found in the current assay is significant for the pyrogallol derivatives, being quite close to EDTA-Na2.

Structure (SMILES) | IC50 [1] [µM] | IC50 (DPPH˙ scavenging) [1] [µg/mL] | % of DPPH˙ Scavenging ([1]; 1.25 µg/mL) | % of DPPH˙ Scavenging ([1]; 2.5 µg/mL) | % of DPPH˙ Scavenging ([1]; 3.75 µg/mL) | % of DPPH˙ Scavenging ([1]; 5 µg/mL) | % of DPPH˙ Scavenging ([1]; 7.5 µg/mL) | % of DPPH˙ Scavenging ([1]; 10 µg/mL) | % of DPPH˙ Scavenging ([1]; 12.5 µg/mL) | % of DPPH˙ Scavenging ([1]; 15 µg/mL) [%] | % of NO˙ Scavenged [2] [%] | FRAP, % of Activity of Trolox [3] [%] | FRAP, % of Activity of Ascorbic Acid [3] [%] | RP, % of Activity of Trolox [4] [%] | RP, % of Activity of Ascorbic Acid [4] [%] | CUPRAC, % of Activity of Trolox [5] [%] | CUPRAC, % of Activity of Ascorbic Acid [5] [%] | Ferrous ions Chelation Capacity (%) ([6]; 17.70 µg/mL) | Ferrous ions Chelation Capacity (%) ([6]; 20.59 µg/mL) | Ferrous ions Chelation Capacity (%) ([6]; 29.41 µg/mL) | other results
CCCCn1c(SCC(=O)NN=C(C)c2ccc(O)cc2O)nc2ccccc2c1=O [Compound 6d, 2-((3-butyl-4-oxo-3,4-dihydroquinazolin-2-yl)thio)-N’-(1-(2,4-dihydroxyphenyl)ethylidene)acetohydrazide] | > 30 | >15 | - (- represents less than 5%) | - (- represents less than 5%) | - (- represents less than 5%) | - (- represents less than 5%) | - (- represents less than 5%) | - (- represents less than 5%) | 10.99% | 13.87 | 30.71 | 27.95 | 24.36 | 24.53 | 16.84 | 11.25 | 11.80 | - (- represents less than 5%) | - (- represents less than 5%) | - (- represents less than 5%) | Ferrous ions Chelation Capacity (%) ([6]; 44.11 µg/mL): - (- represents less than 5%); Ferrous ions Chelation Capacity (%) ([6]; 58.82 µg/mL): - (- represents less than 5%); Ferrous ions Chelation Capacity (%) ([6]; 88.23 µg/mL): - (- represents less than 5%); Ferrous ions Chelation Capacity (%) ([6]; 117.64 µg/mL): - (- represents less than 5%); Ferrous ions Chelation Capacity (%) ([6]; 257.46 µg/mL): - (- represents less than 5%); Ferrous ions Chelation Capacity (%) ([6]; 343.28 µg/mL): - (- represents less than 5%); Cupric ions Chelation Capacity (%) ([7]; 3.36 µg/mL): 5.98%; Cupric ions Chelation Capacity (%) ([7]; 8.40 µg/mL): 11.84%; Cupric ions Chelation Capacity (%) ([7]; 16.80 µg/mL): 20.42%
C=CCn1c(SCC(=O)NN=C(C)c2ccc(O)cc2O)nc2ccccc2c1=O [Compound 6a, 2-((3-Allyl-4-oxo-3,4-dihydroquinazolin-2-yl)thio)-N’-(1-(2,4-dihydroxyphenyl)ethylidene)acetohydrazide] | > 30 | >15 | - (- represents less than 5%) | - (- represents less than 5%) | - (- represents less than 5%) | - (- represents less than 5%) | - (- represents less than 5%) | - (- represents less than 5%) | 12.28% | 21.34 | 31.82 | 26.17 | 22.81 | 30.73 | 21.09 | 12.83 | 13.46 | - (- represents less than 5%) | - (- represents less than 5%) | - (- represents less than 5%) | Ferrous ions Chelation Capacity (%) ([6]; 44.11 µg/mL): - (- represents less than 5%); Ferrous ions Chelation Capacity (%) ([6]; 58.82 µg/mL): - (- represents less than 5%); Ferrous ions Chelation Capacity (%) ([6]; 88.23 µg/mL): - (- represents less than 5%); Ferrous ions Chelation Capacity (%) ([6]; 117.64 µg/mL): - (- represents less than 5%); Ferrous ions Chelation Capacity (%) ([6]; 257.46 µg/mL): - (- represents less than 5%); Ferrous ions Chelation Capacity (%) ([6]; 343.28 µg/mL): - (- represents less than 5%); Cupric ions Chelation Capacity (%) ([7]; 3.36 µg/mL): 10.96%; Cupric ions Chelation Capacity (%) ([7]; 8.40 µg/mL): 20.64%; Cupric ions Chelation Capacity (%) ([7]; 16.80 µg/mL): 31.79%
CC(=NNC(=O)CSc1nc2ccccc2c(=O)n1Cc1ccccc1)c1ccc(O)cc1O [Compound 6b, 2-((3-Benzyl-4-oxo-3,4-dihydroquinazolin-2-yl)thio)-N’-(1-(2,4-dihydroxyphenyl)ethylidene)acetohydrazide] | > 30 | >15 | - (- represents less than 5%) | - (- represents less than 5%) | - (- represents less than 5%) | - (- represents less than 5%) | - (- represents less than 5%) | - (- represents less than 5%) | - (- represents less than 5%) | 11.59 | 33.31 | 21.24 | 18.51 | 29.01 | 19.91 | 22.63 | 23.74 | - (- represents less than 5%) | - (- represents less than 5%) | - (- represents less than 5%) | Ferrous ions Chelation Capacity (%) ([6]; 44.11 µg/mL): - (- represents less than 5%); Ferrous ions Chelation Capacity (%) ([6]; 58.82 µg/mL): - (- represents less than 5%); Ferrous ions Chelation Capacity (%) ([6]; 88.23 µg/mL): - (- represents less than 5%); Ferrous ions Chelation Capacity (%) ([6]; 117.64 µg/mL): - (- represents less than 5%); Ferrous ions Chelation Capacity (%) ([6]; 257.46 µg/mL): - (- represents less than 5%); Ferrous ions Chelation Capacity (%) ([6]; 343.28 µg/mL): - (- represents less than 5%); Cupric ions Chelation Capacity (%) ([7]; 3.36 µg/mL): 6.77%; Cupric ions Chelation Capacity (%) ([7]; 8.40 µg/mL): 17.17%; Cupric ions Chelation Capacity (%) ([7]; 16.80 µg/mL): 30.49%
